ChEMBL document CHEMBL4507273 (2021)

Columns and labels:
[1] = tested on: Epidermal growth factor receptor (Homo sapiens), P00533 [G719C]; details: Compound concentration 1000.0 nM
[2] = target: Serine/threonine-protein kinase MAK (Homo sapiens) (UniProt P20794); details: Compound concentration 1000.0 nM
[3] = target: Ephrin type-A receptor 1 (Homo sapiens) (UniProt P21709); details: Compound concentration 1000.0 nM
[4] = target: Platelet-derived growth factor receptor beta (Homo sapiens) (UniProt P09619); details: Compound concentration 1000.0 nM
[5] = target: Activin receptor type-2B (Homo sapiens) (UniProt Q13705); details: Compound concentration 1000.0 nM
Sequence of Activin receptor type-2B (Homo sapiens) (Q13705 whole entry): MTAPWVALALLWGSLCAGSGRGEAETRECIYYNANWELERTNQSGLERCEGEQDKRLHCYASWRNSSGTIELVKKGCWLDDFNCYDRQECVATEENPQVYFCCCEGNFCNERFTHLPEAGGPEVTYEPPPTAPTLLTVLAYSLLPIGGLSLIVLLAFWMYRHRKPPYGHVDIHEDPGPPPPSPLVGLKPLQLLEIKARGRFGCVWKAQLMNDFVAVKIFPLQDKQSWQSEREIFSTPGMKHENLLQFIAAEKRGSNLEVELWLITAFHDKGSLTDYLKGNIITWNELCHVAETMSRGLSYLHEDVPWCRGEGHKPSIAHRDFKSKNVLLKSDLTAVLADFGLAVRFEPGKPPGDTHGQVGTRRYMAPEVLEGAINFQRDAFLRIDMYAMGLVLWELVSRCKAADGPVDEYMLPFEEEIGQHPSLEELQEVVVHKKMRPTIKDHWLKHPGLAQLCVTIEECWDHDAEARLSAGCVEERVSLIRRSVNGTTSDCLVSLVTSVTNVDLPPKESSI

[6] = target: Ribosomal protein S6 kinase alpha-5 (Homo sapiens) (UniProt O75582); details: Compound concentration 1000.0 nM
[7] = target: Receptor tyrosine-protein kinase erbB-2 (Homo sapiens) (UniProt P04626); details: Compound concentration 1000.0 nM
[8] = target: Mitogen-activated protein kinase kinase kinase 5 (Homo sapiens) (UniProt Q99683); details: Compound concentration 1000.0 nM
Sequence of Mitogen-activated protein kinase kinase kinase 5 (Homo sapiens) (Q99683 whole entry): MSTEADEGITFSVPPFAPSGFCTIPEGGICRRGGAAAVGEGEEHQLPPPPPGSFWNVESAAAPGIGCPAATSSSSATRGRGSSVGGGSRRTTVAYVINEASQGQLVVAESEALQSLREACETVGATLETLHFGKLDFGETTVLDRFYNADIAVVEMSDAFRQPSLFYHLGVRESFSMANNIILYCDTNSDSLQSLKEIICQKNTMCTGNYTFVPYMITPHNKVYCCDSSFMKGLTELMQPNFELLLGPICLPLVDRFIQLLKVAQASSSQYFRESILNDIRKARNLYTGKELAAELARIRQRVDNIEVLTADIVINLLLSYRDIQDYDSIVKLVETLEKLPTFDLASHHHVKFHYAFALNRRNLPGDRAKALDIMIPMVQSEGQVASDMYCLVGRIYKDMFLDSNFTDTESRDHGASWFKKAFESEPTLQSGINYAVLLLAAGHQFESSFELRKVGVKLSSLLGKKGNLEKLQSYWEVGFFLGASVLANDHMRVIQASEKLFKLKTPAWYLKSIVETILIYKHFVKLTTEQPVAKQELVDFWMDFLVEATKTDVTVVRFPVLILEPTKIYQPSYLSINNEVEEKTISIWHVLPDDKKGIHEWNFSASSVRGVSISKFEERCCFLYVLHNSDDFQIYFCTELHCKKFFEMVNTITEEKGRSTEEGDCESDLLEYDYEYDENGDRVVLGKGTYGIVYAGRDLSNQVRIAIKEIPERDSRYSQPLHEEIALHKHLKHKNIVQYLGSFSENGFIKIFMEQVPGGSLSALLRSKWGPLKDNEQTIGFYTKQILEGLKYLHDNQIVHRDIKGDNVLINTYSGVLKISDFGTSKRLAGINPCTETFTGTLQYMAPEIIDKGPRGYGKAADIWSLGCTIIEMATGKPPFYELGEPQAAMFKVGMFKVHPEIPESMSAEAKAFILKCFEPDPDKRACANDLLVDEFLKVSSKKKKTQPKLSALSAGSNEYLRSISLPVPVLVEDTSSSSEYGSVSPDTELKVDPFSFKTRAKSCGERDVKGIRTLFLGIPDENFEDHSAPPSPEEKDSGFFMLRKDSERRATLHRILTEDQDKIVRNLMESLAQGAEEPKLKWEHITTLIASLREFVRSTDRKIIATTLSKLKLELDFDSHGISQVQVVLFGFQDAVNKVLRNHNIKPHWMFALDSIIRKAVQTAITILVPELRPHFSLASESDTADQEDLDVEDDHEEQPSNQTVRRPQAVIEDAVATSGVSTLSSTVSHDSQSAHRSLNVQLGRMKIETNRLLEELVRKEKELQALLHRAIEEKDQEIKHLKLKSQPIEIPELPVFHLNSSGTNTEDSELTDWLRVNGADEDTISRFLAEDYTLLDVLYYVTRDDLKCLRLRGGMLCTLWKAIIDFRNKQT

[9] = target: Serine/threonine-protein kinase PRP4 homolog (Homo sapiens) (UniProt Q13523); details: Compound concentration 1000.0 nM
[10] = target: RAF proto-oncogene serine/threonine-protein kinase (Homo sapiens) (UniProt P04049); details: Compound concentration 1000.0 nM
[11] = target: Receptor-type tyrosine-protein kinase FLT3 (Homo sapiens) (UniProt P36888); details: Compound concentration 1000.0 nM
[12] = target: Discoidin domain-containing receptor 2 (Homo sapiens) (UniProt Q16832); details: Compound concentration 1000.0 nM
[13] = target: Insulin receptor-related protein (Homo sapiens) (UniProt P14616); details: Compound concentration 1000.0 nM
Sequence of Insulin receptor-related protein (Homo sapiens) (P14616 27-742 limits assumed): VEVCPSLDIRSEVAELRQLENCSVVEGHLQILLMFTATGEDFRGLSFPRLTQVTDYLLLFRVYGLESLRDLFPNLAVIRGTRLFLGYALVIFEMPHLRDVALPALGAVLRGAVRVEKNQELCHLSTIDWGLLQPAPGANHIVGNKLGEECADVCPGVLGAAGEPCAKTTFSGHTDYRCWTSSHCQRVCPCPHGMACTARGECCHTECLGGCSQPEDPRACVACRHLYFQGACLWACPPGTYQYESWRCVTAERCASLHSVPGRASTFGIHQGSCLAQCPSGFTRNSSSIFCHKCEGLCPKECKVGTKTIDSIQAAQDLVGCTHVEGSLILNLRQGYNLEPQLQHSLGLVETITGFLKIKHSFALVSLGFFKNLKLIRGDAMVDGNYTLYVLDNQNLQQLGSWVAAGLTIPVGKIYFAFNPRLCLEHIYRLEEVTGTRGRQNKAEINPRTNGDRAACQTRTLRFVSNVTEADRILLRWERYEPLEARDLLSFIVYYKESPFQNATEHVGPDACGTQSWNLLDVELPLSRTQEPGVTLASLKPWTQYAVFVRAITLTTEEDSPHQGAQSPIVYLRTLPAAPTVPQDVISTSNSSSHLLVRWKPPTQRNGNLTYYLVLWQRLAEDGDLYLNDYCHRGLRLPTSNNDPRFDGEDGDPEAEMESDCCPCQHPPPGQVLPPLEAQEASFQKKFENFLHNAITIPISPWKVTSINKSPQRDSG
Sequence of Insulin receptor-related protein (Homo sapiens) (P14616 747-1297 limits assumed): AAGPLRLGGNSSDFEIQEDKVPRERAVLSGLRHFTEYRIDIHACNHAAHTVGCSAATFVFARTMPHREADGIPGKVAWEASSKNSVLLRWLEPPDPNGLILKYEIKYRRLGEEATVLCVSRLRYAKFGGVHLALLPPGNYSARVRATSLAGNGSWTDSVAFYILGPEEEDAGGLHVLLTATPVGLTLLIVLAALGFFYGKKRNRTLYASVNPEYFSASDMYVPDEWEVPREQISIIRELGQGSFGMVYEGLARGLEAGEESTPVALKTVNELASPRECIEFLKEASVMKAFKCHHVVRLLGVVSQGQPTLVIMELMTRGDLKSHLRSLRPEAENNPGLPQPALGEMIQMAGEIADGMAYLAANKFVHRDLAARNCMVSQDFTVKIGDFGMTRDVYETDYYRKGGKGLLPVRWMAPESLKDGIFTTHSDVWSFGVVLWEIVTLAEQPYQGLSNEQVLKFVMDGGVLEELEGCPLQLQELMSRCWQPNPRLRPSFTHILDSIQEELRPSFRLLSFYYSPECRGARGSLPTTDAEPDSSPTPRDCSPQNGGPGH

[14] = target: Serine/threonine-protein kinase 35 (Homo sapiens) (UniProt Q8TDR2); details: Compound concentration 1000.0 nM
[15] = target: Serine/threonine-protein kinase DCLK1 (Homo sapiens) (UniProt O15075); details: Compound concentration 1000.0 nM
[16] = target: Serine/threonine-protein kinase Nek7 (Homo sapiens) (UniProt Q8TDX7); details: Compound concentration 1000.0 nM
[17] = target: Calcium/calmodulin-dependent protein kinase type II subunit gamma (Homo sapiens) (UniProt Q13555); details: Compound concentration 1000.0 nM
[18] = target: Tyrosine-protein kinase receptor TYRO3 (Homo sapiens) (UniProt Q06418); details: Compound concentration 1000.0 nM
[19] = target: Dual specificity protein kinase CLK2 (Homo sapiens) (UniProt P49760); details: Compound concentration 1000.0 nM
[20] = target: Sodium-dependent noradrenaline transporter (Homo sapiens, UniProt P23975); details: Compound concentration 10.0 uM
[21] = target: Serine/threonine-protein kinase PLK4 (Homo sapiens) (UniProt O00444); details: Compound concentration 1000.0 nM
[22] = target: Tyrosine-protein kinase ABL1 (Homo sapiens) (UniProt P00519); details: Compound concentration 1000.0 nM
[23] = target: Phosphatidylinositol 4-kinase beta (Homo sapiens) (UniProt Q9UBF8); details: Compound concentration 1000.0 nM
[24] = target: Ephrin type-A receptor 7 (Homo sapiens) (UniProt Q15375); details: Compound concentration 1000.0 nM
[25] = target: Serine/threonine-protein kinase Sgk2 (Homo sapiens) (UniProt Q9HBY8); details: Compound concentration 1000.0 nM
[26] = target: Serine/threonine-protein kinase Nek1 (Homo sapiens) (UniProt Q96PY6); details: Compound concentration 1000.0 nM
[27] = target: Guanine nucleotide exchange factor DBS (Homo sapiens, UniProt O15068); test: CDC42 activation by DBS assay
[28] = target: Vascular endothelial growth factor receptor 3 (Homo sapiens) (UniProt P35916); details: Compound concentration 1000.0 nM
[29] = target: Serine/threonine-protein kinase LATS1 (Homo sapiens) (UniProt O95835); details: Compound concentration 1000.0 nM
[30] = target: Phosphatidylinositol 4,5-bisphosphate 3-kinase catalytic subunit gamma isoform (Homo sapiens) (UniProt P48736); details: Compound concentration 1000.0 nM
[31] = target: Casein kinase I isoform delta (Homo sapiens) (UniProt P48730); details: Compound concentration 1000.0 nM
[32] = target: Serine/threonine-protein kinase Nek10 (Homo sapiens) (UniProt Q6ZWH5); details: Compound concentration 1000.0 nM
[33] = target: Dual specificity tyrosine-phosphorylation-regulated kinase 1A (Homo sapiens) (UniProt Q13627); details: Compound concentration 1000.0 nM
[34] = target: Interferon-induced, double-stranded RNA-activated protein kinase (Homo sapiens) (UniProt P19525); details: Compound concentration 1000.0 nM
Sequence of Interferon-induced, double-stranded RNA-activated protein kinase (Homo sapiens) (P19525 whole entry): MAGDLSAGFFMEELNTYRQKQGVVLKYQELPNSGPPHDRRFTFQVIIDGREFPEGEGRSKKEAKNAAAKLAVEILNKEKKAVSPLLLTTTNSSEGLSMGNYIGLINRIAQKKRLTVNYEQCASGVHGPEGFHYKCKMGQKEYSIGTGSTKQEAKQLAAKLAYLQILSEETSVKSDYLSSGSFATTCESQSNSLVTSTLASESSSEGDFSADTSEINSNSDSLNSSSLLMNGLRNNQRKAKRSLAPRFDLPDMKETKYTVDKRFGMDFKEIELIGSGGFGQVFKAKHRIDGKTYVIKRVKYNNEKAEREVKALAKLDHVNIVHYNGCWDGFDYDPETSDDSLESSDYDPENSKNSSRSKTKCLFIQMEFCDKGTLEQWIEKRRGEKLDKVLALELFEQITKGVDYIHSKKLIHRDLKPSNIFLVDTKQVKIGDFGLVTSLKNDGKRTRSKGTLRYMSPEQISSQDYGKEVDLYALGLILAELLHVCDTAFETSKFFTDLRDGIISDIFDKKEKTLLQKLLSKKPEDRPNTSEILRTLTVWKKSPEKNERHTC

[35] = target: Serine/threonine-protein kinase 17B (Homo sapiens) (UniProt O94768); details: Compound concentration 1000.0 nM
[36] = target: Calcium/calmodulin-dependent protein kinase type 1B (Homo sapiens) (UniProt Q6P2M8); details: Compound concentration 1000.0 nM
[37] = target: Casein kinase I isoform alpha (Homo sapiens) (UniProt P48729); details: Compound concentration 1000.0 nM
[38] = target: T1, 5-hydroxytryptamine receptor 1B (Homo sapiens, UniProt P28222); test: GPCRScan assay: inhibition of 5-HT1B; set-up: radioligand conc. used [nm] 0.6 – 1.5, parental cells stable HEK
T1 sequence (P28222 whole entry): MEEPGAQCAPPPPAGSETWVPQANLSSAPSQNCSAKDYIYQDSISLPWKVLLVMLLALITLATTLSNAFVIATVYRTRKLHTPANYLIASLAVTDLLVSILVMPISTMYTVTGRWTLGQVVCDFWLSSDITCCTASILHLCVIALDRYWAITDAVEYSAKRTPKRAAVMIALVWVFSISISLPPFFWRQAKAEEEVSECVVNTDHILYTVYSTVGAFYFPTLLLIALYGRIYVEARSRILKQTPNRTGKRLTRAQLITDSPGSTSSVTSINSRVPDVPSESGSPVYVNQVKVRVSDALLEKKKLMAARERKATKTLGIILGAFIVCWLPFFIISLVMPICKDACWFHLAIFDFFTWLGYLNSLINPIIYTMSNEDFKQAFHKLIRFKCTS

[39] = target: Interleukin-1 receptor-associated kinase 3 (Homo sapiens) (UniProt Q9Y616); details: Compound concentration 1000.0 nM
[40] = target: Calcium/calmodulin-dependent protein kinase type II subunit alpha (Homo sapiens) (UniProt Q9UQM7); details: Compound concentration 1000.0 nM
[41] = target: Mitogen-activated protein kinase 1 (Homo sapiens) (UniProt P28482); details: Compound concentration 1000.0 nM
[42] = target: Tyrosine-protein kinase Lck (Homo sapiens) (UniProt P06239); details: Compound concentration 1000.0 nM
[43] = target: Serine/threonine-protein kinase 26 (Homo sapiens) (UniProt Q9P289); details: Compound concentration 1000.0 nM
[44] = target: T1, 5-hydroxytryptamine receptor 1B; details: Compound concentration 10.0 uM
[45] = target: Myosin light chain kinase family member 4 (Homo sapiens) (UniProt Q86YV6); details: Compound concentration 1000.0 nM

Sequence of Ephrin type-A receptor 1 (Homo sapiens) (P21709 whole entry): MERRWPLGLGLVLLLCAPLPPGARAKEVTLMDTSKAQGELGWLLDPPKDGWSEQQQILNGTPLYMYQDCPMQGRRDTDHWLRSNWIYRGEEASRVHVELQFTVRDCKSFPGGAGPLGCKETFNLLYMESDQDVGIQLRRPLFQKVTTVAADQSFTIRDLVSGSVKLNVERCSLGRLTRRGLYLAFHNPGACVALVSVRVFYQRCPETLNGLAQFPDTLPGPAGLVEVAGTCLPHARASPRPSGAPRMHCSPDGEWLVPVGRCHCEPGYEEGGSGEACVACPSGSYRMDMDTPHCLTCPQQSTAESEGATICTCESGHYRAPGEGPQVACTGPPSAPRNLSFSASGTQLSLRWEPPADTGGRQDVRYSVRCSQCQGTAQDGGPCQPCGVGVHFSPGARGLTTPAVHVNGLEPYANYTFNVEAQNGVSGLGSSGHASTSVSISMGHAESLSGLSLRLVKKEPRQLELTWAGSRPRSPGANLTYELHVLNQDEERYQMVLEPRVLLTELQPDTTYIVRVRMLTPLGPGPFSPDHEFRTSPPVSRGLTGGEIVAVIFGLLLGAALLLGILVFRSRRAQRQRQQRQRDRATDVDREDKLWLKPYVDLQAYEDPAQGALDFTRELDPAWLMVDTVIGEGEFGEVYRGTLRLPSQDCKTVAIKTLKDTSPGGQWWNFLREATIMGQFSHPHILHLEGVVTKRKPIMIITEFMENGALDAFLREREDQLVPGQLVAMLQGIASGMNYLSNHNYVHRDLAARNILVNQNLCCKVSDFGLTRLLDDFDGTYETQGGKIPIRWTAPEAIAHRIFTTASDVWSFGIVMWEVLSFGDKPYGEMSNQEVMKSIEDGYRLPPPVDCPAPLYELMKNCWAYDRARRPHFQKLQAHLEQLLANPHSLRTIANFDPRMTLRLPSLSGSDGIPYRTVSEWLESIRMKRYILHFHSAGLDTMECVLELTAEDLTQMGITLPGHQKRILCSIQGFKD

Compound: CNCc1ccccc1-c1csc([C@@H](C)Nc2nc(C)nc3cc(OC)c(OC)cc23)c1 [BAY-293]
- residual activity [1]: 63%
- residual activity [2]: 100%
- residual activity [3]: 79%
- residual activity [4]: 91%
- residual activity [5]: 100%
- residual activity [6]: 89%
- residual activity [7]: 84%
- residual activity [8]: 91%
- residual activity [9]: 96%
- residual activity [10]: 70%
- residual activity [11]: 88%
- residual activity [12]: 92%
- residual activity [13]: 95%
- residual activity [14]: 91%
- residual activity [15]: 86%
- residual activity [16]: 100%
- residual activity [17]: 100%
- residual activity [18]: 89%
- residual activity [19]: 98%
- inhibition [20]: 84%
- residual activity [21]: 74%
- residual activity [22]: 97%
- residual activity [23]: 82%
- residual activity [24]: 100%
- residual activity [25]: 95%
- residual activity [26]: 91%
- IC50 [27]: > 20 µM (not active)
- residual activity [28]: 83%
- residual activity [29]: 100%
- residual activity [30]: 67%
- residual activity [31]: 82%
- residual activity [32]: 73%
- residual activity [33]: 88%
- residual activity [34]: 90%
- residual activity [35]: 92%
- residual activity [36]: 95%
- residual activity [37]: 73%
- Ki ([38]; read-out: Ki): 1.41 µM
- Ki ([38]; read-out: pKi (converted)): 1.35 µM
- residual activity [39]: 75%
- residual activity [40]: 99%
- residual activity [41]: 78%
- residual activity [42]: 100%
- residual activity [43]: 99%
- inhibition [44]: 66.1%
- residual activity [45]: 99%

Compound: CNCc1ccccc1-c1csc([C@H](C)Nc2nc(C)nc3cc(OC)c(OC)cc23)c1 [BAY-294]
- residual activity [1]: 85%
- residual activity [2]: 97%
- residual activity [3]: 100%
- residual activity [4]: 99%
- residual activity [5]: 100%
- residual activity [6]: 82%
- residual activity [7]: 100%
- residual activity [8]: 100%
- residual activity [9]: 100%
- residual activity [10]: 65%
- residual activity [11]: 93%
- residual activity [12]: 94%
- residual activity [13]: 93%
- residual activity [14]: 100%
- residual activity [15]: 87%
- residual activity [16]: 100%
- residual activity [17]: 90%
- residual activity [18]: 100%
- residual activity [19]: 100%
- inhibition [20]: 69.3%
- residual activity [21]: 76%
- residual activity [22]: 100%
- residual activity [23]: 74%
- residual activity [24]: 100%
- residual activity [25]: 100%
- residual activity [26]: 100%
- IC50 [27]: > 20 µM (not active)
- residual activity [28]: 100%
- residual activity [29]: 100%
- residual activity [30]: 73%
- residual activity [31]: 95%
- residual activity [32]: 78%
- residual activity [33]: 80%
- residual activity [34]: 100%
- residual activity [35]: 100%
- residual activity [36]: 100%
- residual activity [37]: 74%
- Ki ([38]; read-out: Ki): 1.76 µM
- residual activity [39]: 83%
- residual activity [40]: 100%
- residual activity [41]: 100%
- residual activity [42]: 100%
- residual activity [43]: 97%
- inhibition [44]: 75%
- residual activity [45]: 100%
